Tests used:
cyclophilin A (CYPA) = cyclophilin A (CYPA) (Homo sapiens, UniProt P62937); assay: CYPA-compound binary complex formation by SPR; conditions: read-out: CYPA Binding Affinity
Protocol: In order to determine the affinity of compounds of the invention for cyclophilin A (CYPA), we employed surface plasmon resonance binding analysis using the following reagents, instruments and protocol as supplied by the instrument manufacturer.
Reagents and Instrument • 1. Instrument: Biacore S200 (GE Healthcare Life Sciences) • 2. Running buffer: 1×HBS-P+ (1×HBS supplemented with 0.05% Tween20), pH7.4, and 2% DMSO. • 3. Ligand: CypA-Avi • 4. Analyte: Serial dilution of WDB compounds from 50 μM to 0 μM, 2-fold dilution, 10 points (10 mM stock concentration). • 5. Sensor kit: Biotin CAPture Kit (BR28-9202-34, GE Healthcare Life Sciences) • 6. Regeneration buffer: 1 volume of 1 M NaOH and 3 volumes of 8 M guanidine hydrochloride (supplied with CAPture Kit, BR28-9202-34, GE Healthcare Life Sciences)
Experimental Procedure • 1. Capture of CAPreagent: 2 μl/min for 60 seconds. • 2. Immobilization of ligand CypA: Use Fc1 as the reference cell; immobilize CypA at 4 μg/ml using 5 μl/min flowrate on Fc2 (60s), Fc3 (80s) and Fc4 (80s), respectively. • 3. Binding of analytes: Inject WDB compound dilutions sequentially at 50 μl/min for association of 60 seconds. And then let it dissociates in buffer at 50 μl/min for 60 seconds. • 4. Regeneration: 2 injections of regeneration buffer at 30 μl/min for 60 seconds to regenerate the chip surface. • 5. Solvent correction: Run solvent correction at beginning and the end of the run. If run more than 6 compounds, add additional solvent correction every 6 compounds. • 6. Data fitting with built-in Biacore Evaluation Software: Steady-state fitting.

[1] = biological target: T1, BRAF-GTP-KRAS-G12C complex (Homo sapiens, UniProt P01116+P62937, G12C); assay: KRAS-BRAF complex disruption through competition with CYPA-compound by TR-FRET; conditions: biochemical BRAF-KRAS G12C-GTP disruption assay EC50, with CYPA
T1 construct: 50 nM of His6-KRas G12C-GTP (1-169); 500 nM of tagless CypA (1-165)
Protocol: In this example, TR-FRET was used to measure the compound-facilitated disruption of a KRAS-BRAF complex. A mixture of tagless Cyclophilin A, His6-KRAS G12C-GMP-PNP, and GST-BRAF RAS binding domain was added to a 384-well assay plate containing compounds of the invention and incubated for 3 hours. A mixture of Anti-His Eu-W1024 and anti-GST allophycocyanin was then added and the reaction was incubated for an additional 1.5 hours. TR-FRET signal was read on an EnVision microplate reader (Perkin Elmer, Ex 320 nm, Em 665/615 nm). Compounds that facilitate disruption of a KRAS_BRAF complex were identified as those eliciting a decrease in the TR-FRET ratio relative to DMSO control wells. To determine the presenter-dependence of the compound-mediated KRAS-BRAF complex disruption, Cyclophilin A was left out of the initial incubation (see Table 5). To determine G12C specificity of the compound-mediated KRAS-BRAF complex disruption, wild-type KRAS was used instead of G12C KRAS (see Table 5).
Reagents and Instrument • Tagless CYPA; 519 μM in PBS buffer, pH 7.4 • GST BRAF; 110 μM in PBS buffer, pH 7.4 • His6-KRASG12C-GMP-PNP; 50 μM in PBS buffer, pH 7.4 • His6-KRASWT-GMP-PNP; 40 μM in PBS buffer, pH 7.4 • Anti-His Eu-W1024 (LANCE® Eu-W1024; Perkin Elmer) • Anti-GST allophycocyanin (Anti-GST IgG conjugated to SureLight®-Allophycocyanin; Perkin Elmer; Product Number AD0059G) • Test compounds, 10 mM in 100% DMSO • EnVision (Perkin Elmer) • Combi MultiDrop liquid dispenser with 8-channel small volume cassette • 384-well ProxiPlate (black)
Experimental Protocol • 1. Use Mosquito to dispense 100 nL/well of compounds (varying concentration in […]) into 384-well black ProxiPlate to make assay-ready-plate (ARP). • 2. Make assay buffer containing 25 mM Hepes pH 7.3, 100 mM NaCl, 5 mM MgCl2, 0.05% BSA, and 0.002% Tween-20. • 3. Make PRE-MIX A: delivers final concentrations of 50 nM of His6-KRas G12C-GTP (1-169) and 500 nM of tagless CypA (1-165) in assay buffer. • a. For presenter dependence experiments, omit addition of tagless CypA • b. For G12C/wt specificity experiments, substitute His6-KRas WT-GTP (1-169) for His6-KRas G12C-GTP (1-169) • 4. Use MultiDrop Combi to dispense PRE-MIX A into ARP, 7 μl/well. Incubate 3 hr at room temperature. • 5. Make PRE-MIX B: delivers final concentrations of 10 nM of anti-His Eu-W1024 and 50 nM of anti-GST APC. • 6. Use MultiDrop Combi to dispense PRE-MIX B into ARP, 3 μl/well. Shake briefly on Combi and incubate 1.5 hr at room temperature. • 7. Read on EnVision (Ex: 320 nm; Em1: 615 nm; Em2: 665 nm). • 8. Data is processed using Dotmatics. Curves are fit using a 4-parameter non-linear fit to determine the EC50 value for formation of the ternary complex.

| Structure (SMILES) | Kd (cyclophilin A (CYPA)) [µM] | EC50 [1] [µM] |
| --- | --- | --- |
| CC1=C(C)C(=O)N(CC(=O)N(C)[C@H](C(=O)N[C@H]2Cc3cc(O)cc(c3)-c3ccc4ncn(c4c3)CCCOC(=O)[C@@H]3CCCN(N3)C2=O)C(C)C)C1=O [Compound 153] | 5 to 15 | > 5 |
| CC1COC(=O)[C@@H]2CCCN(N2)C(=O)[C@@H](NC(=O)[C@H](C(C)C)N(C)C(=O)C2CN(C(=O)CCl)C2)Cc2cc(O)cc(c2)-c2ccc3c(C#N)cn(c3c2)C1 (single isomer, unassigned) [Compound 88] | > 15 | 0.5 to 5 |
| Cc1nc2ccc3cc2n1CC(C)(C)COC(=O)[C@@H]1CCCN(N1)C(=O)[C@@H](NC(=O)[C@H](C(C)C)N(C)C(=O)CNC(=O)CCl)Cc1cc(O)cc-3c1 [Compound 150] | 5 to 15 | 0.5 to 5 |
| CC(C)[C@@H](C(=O)N[C@H]1Cc2cc(O)cc(c2)-c2ccc3nc(C4CCOCC4)n(c3c2)CCCOC(=O)[C@@H]2CCCN(N2)C1=O)N(C)C(=O)C1CN(C(=O)CCl)C1 [Compound 170] | 5 to 15 | 0.5 to 5 |
| Cc1nc2ccc3cc2n1CC(C)(C)COC(=O)[C@@H]1CCCN(N1)C(=O)[C@@H](NC(=O)[C@H](C(C)C)N1CCN(C(=O)CCl)CC1=O)Cc1cc(O)cc-3c1 [Compound 146] | 5 to 15 | 0.5 to 5 |
| Cc1nc2ccc3cc2n1C[C@@H](C)COC(=O)[C@@H]1CCCN(N1)C(=O)[C@@H](NC(=O)[C@H](C(C)C)N(C)C(=O)C1CN(C(=O)CCl)C1)Cc1cc(O)cc-3c1 [Compound 148] | > 15 | 0.5 to 5 |
| C=CC(=O)N1CCN([C@H](C(=O)N[C@H]2Cc3cncc(c3)-c3ccc4nc(CC)n(c4c3)CCCOC(=O)[C@@H]3CCCN(N3)C2=O)C(C)C)C1=O [Compound 4, (2S)-2-(3-acryloyl-2-oxoimidazolidin-1-yl)-N-((6^3S,4S)-12-ethyl-5,7-dioxo-6^1,6^2,6^3,6^4,6^5,6^6-hexahydro-1^1H-8-oxa-1(6,1)-benzo[d]imidazola-6(1,3)-pyridazina-2(3,5)-pyridinacycloundecaphane-4-yl)-3-methylbutanamide] | 5 to 15 | > 5 |
| CC1CCn2cnc3ccc(cc32)-c2cc(O)cc(c2)CC(NC(=O)C(C(C)C)N(C)C(=O)C2CN(C(=O)CCl)C2)C(=O)N2CCCC(N2)C(=O)O1 (mixture of isomers) [Compound 140] | > 15 | 0.5 to 5 |
| CC(C)C(C(=O)NC1Cc2cc(O)cc(c2)-c2ccc3c(C#N)cn(c3c2)CC(C)(C)COC(=O)C2CCCN(N2)C1=O)N(C)C(=O)C1CN(C(=O)CCl)C1 (stereo not drawn) [Compound 98] | 5 to 15 | ≤ 0.5 |
| C=CC(=O)N1CC(C(=O)N(C)[C@H](C(=O)N[C@H]2Cc3cc(O)cc(c3)-c3ccc4nc(C)n(c4c3)CC(C)(C)COC(=O)[C@@H]3CCCN(N3)C2=O)C(C)C)C1 [Compound 145] | 5 to 15 | 0.5 to 5 |
| Cc1nc2ccc3cc2n1CC(O)COC(=O)C1CCCN(N1)C(=O)C(NC(=O)C(C(C)C)N(C)C(=O)C1CN(C(=O)CCl)C1)Cc1cc(O)cc-3c1 (mixture of isomers) [Compound 154] | 5 to 15 | 0.5 to 5 |
| Cc1nc2ccc3cc2n1CC(C)(C)COC(=O)[C@@H]1CCCN(N1)C(=O)[C@@H](NC(=O)[C@H](C(C)C)N(C)C(=O)CN1CC=CC1=O)Cc1cc(O)cc-3c1 [Compound 144] | 5 to 15 | > 5 |
| CC1=C(C)C(=O)N(CC(=O)N(C)[C@H](C(=O)N[C@H]2Cc3cc(O)cc(c3)-c3ccc4nc(C)n(c4c3)CC(C)(C)COC(=O)[C@@H]3CCCN(N3)C2=O)C(C)C)C1=O [Compound 171] | 5 to 15 | 0.5 to 5 |

The remaining lines, values ahead:

| Kd (cyclophilin A (CYPA)) [µM] | EC50 [1] [µM] | Structure (SMILES) |
| --- | --- | --- |
| ≤ 5 | 0.5 to 5 | CC(C)[C@@H](C(=O)N[C@H]1Cc2cc(O)cc(c2)-c2ccc3nc(-c4ccccc4C#N)n(c3c2)CCCOC(=O)[C@@H]2CCCN(N2)C1=O)N(C)C(=O)C1CN(C(=O)CCl)C1 [Compound 167] |
| ≤ 5 |  | CC(C)[C@@H](C(=O)N[C@H]1Cc2cc(O)cc(c2)-c2ccc3ncn(c3c2)CCCOC(=O)[C@@H]2CCCN(N2)C1=O)N(C)C(=O)C1CN(C(=O)CCl)C1 [Compound 234, 1-(2-chloroacetyl)-N-((2S)-1-(((6^3S,4S)-2^5-hydroxy-5,7-dioxo-6^1,6^2,6^3,6^4,6^5,6-hexahydro-1^1H-8-oxa-1(6,1)-benzo[d]imidazola-6(1,3)-pyridazina-2(1,3)-benzenacycloundecaphane-4-yl)amino)-3-methyl-1-oxobutan-2-yl)-N-methylazetidine-3-carboxamide] |
| ≤ 5 | > 5 | C=CC(=O)N1CCN([C@H](C(=O)N[C@H]2Cc3cc(O)cc(c3)-c3ccc4nccc(c4c3)OCCOC(=O)[C@@H]3CCCN(N3)C2=O)C(C)C)C1=O [Compound 2, (2S)-2-(3-acryloyl-2-oxoimidazolidin-1-yl)-N-((6^3S,4S)-2^5-hydroxy-5,7-dioxo-6^1,6^2,6^3,6^4,6^5,6^6-hexahydro-8,11-dioxa-1(6,4)-quinolina-6(1,3)-pyridazina-2(1,3)-benzenacycloundecaphane-4-yl)-3-methylbutanamide] |
| ≤ 5 | 0.5 to 5 | C=CC(=O)N1CCN(C(C(=O)NC2Cc3cc(O)cc(c3)-c3ccc4c(C#N)cn(c4c3)CCCOC(=O)C3CCCN(N3)C2=O)C(C)C)C1=O (stereo not drawn) [Compound 94] |
| ≤ 5 | 0.5 to 5 | C=CC(=O)N1CCN([C@H](C(=O)N[C@H]2Cc3cc(O)cc(c3)-c3ccc4nc(CC)n(c4c3)CCCOC(=O)[C@@H]3CCCN(N3)C2=O)C(C)C)C1=O [Compound 141] |
| ≤ 5 | > 5 | C=CC(=O)N1CCN([C@H](C(=O)N[C@H]2Cc3cc(O)cc(c3)-c3ccc4ccn(c4c3)CCCOC(=O)[C@@H]3CCCN(N3)C2=O)C(C)C)C1=O [Compound 93] |
| ≤ 5 | 0.5 to 5 | C=CC(=O)N1CCN([C@H](C(=O)N[C@H]2Cc3cc(O)cc(c3)-c3ccc4c(CC#N)cn(c4c3)CCCOC(=O)[C@@H]3CCCN(N3)C2=O)C(C)C)C1=O [Compound 96] |
| ≤ 5 | ≤ 0.5 | COc1ccccc1-c1nc2ccc3cc2n1CCCOC(=O)[C@@H]1CCCN(N1)C(=O)[C@@H](NC(=O)[C@H](C(C)C)N(C)C(=O)C1CN(C(=O)CCl)C1)Cc1cc(O)cc-3c1 [Compound 168] |
| ≤ 5 | 0.5 to 5 | CC(C)C(C(=O)NC1Cc2cc(O)cc(c2)-c2ccc3c(C#N)cn(c3c2)CCCOC(=O)C2CCCN(N2)C1=O)N(C)C(=O)C1CN(C(=O)CCl)C1 (stereo not drawn) [Compound 101] |
| ≤ 5 | > 5 | C=CC(=O)N1CCN([C@H](C(=O)N[C@H]2Cc3cc(O)cc(c3)-c3ccc4c(=O)n(C)n(c4c3)CCCOC(=O)[C@@H]3CCCN(N3)C2=O)C(C)C)C1=O [Compound 174] |
